How the values were obtained:
expressed human SULT1A3 [1] = biological target: T1, expressed human SULT1A3 (Homo sapiens, UniProt P0DMM9); test: Sulfonation activities of flavonoids in expressed human SULT1A3; type: in vitro ADME; settings: for sulfate detection when SULT1A3 was used: expressed SULT1A3, LC-MS/MS and UPLC; for sulfonation rate: pH 7.4, 37°C, n=3
SULT1A3 = SULT1A3 (Homo sapiens, UniProt P0DMM9); test: Kinetics of flavonoid sulfonation by SULT1A3; settings: human
expressed human SULT1A3 [2] = biological target: T1, expressed human SULT1A3; test: Kinetics of flavonoid sulfonation by SULT1A3; settings: for Km1: SULT1A3, 0.039–20 µM substrate; for Kinetic model: SULT1A3, best-fit model by Eadie-Hofstee plot and AIC; for Ksi (substrate inhibition constant): SULT1A3, substrate inhibition model
[3] = expressed SULT1A3, substrate concentration 2.5 µM
[4] = expressed SULT1A3, substrate concentration 10 µM

T1 sequence (P0DMM9 whole entry): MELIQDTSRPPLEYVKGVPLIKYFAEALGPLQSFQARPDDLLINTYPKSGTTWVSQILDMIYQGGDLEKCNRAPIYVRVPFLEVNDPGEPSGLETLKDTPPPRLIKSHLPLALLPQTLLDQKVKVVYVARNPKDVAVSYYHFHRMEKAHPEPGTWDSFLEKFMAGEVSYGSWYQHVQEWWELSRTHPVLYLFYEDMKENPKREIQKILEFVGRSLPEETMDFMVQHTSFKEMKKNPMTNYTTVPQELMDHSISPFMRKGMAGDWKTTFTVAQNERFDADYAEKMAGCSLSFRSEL
SULT1A3, sequence (P0DMM9 whole entry): as above

## O=c1cc(-c2ccc(O)cc2)oc2ccccc12 [4’HF, 4'-Hydroxyflavone]
Expressed human SULT1A3 [1]
  sulfate detection when SULT1A3 was used: not detected
Expressed human SULT1A3 [1]; [3]
  sulfonation rate: 0 nmol/hr/mg protein

## O=c1cc(-c2ccccc2)oc2cc(O)ccc12 [7HF, 7-Hydroxyflavone]
SULT1A3
  microsomal CLint: 30400 µL/min/mg
Expressed human SULT1A3 [2]
  Km1: 2.80 µM
  Kinetic model: substrate inhibition kinetics
  Ksi (substrate inhibition constant): 23.12
Expressed human SULT1A3 [1]; [3]
  sulfonation rate: 35.66 ± 4.72 nmol/hr/mg protein
Expressed human SULT1A3 [1]; [4]
  sulfonation rate: 48.92 ± 5.18 nmol/hr/mg protein

## O=c1c(-c2ccc(O)cc2)coc2cc(O)cc(O)c12 [genistein, Genistein]
Expressed human SULT1A3 [1]
  sulfate detection when SULT1A3 was used: not detected
Expressed human SULT1A3 [1]; [3]
  sulfonation rate: 0 nmol/hr/mg protein
Expressed human SULT1A3 [1]; [4]
  sulfonation rate: 0 nmol/hr/mg protein

## O=C1C[C@@H](c2ccc(O)cc2)Oc2cc(O)cc(O)c21 [naringenin, Naringenin]
Expressed human SULT1A3 [1]; [3]
  sulfonation rate: 3.21 ± 0.36 nmol/hr/mg protein
Expressed human SULT1A3 [1]; [4]
  sulfonation rate: 12.03 ± 0.94 nmol/hr/mg protein

## O=c1cc(-c2ccc(O)cc2)oc2cc(O)ccc12 [7,4’DHF, 7,4'-Dihydroxyflavone]
Expressed human SULT1A3 [2]
  Km1: 3.42 µM
  Kinetic model: Substrate inhibition
  Ksi (substrate inhibition constant): 13.81
Expressed human SULT1A3 [1]; [3]
  sulfonation rate: 7.54 ± 0.34 nmol/hr/mg protein
Expressed human SULT1A3 [1]; [4]
  sulfonation rate: 10.30 ± 1.64 nmol/hr/mg protein

## O=C(CCc1ccc(O)cc1)c1c(O)cc(O)cc1O [phloretin, Phloretin]
Expressed human SULT1A3 [1]; [3]
  sulfonation rate: 0 nmol/hr/mg protein
Expressed human SULT1A3 [1]; [4]
  sulfonation rate: 0 nmol/hr/mg protein

## O=c1cc(-c2ccccc2)oc2cccc(O)c12 [5HF, 5-Hydroxyflavone]
Expressed human SULT1A3 [1]
  sulfate detection when SULT1A3 was used: not detected
Expressed human SULT1A3 [1]; [3]
  sulfonation rate: 0 nmol/hr/mg protein

## O=c1c(O)c(-c2ccccc2)oc2ccccc12 [3HF, 3-Hydroxyflavone]
Expressed human SULT1A3 [1]
  sulfate detection when SULT1A3 was used: not detected
Expressed human SULT1A3 [1]; [3]
  sulfonation rate: 0 nmol/hr/mg protein
Expressed human SULT1A3 [1]; [4]
  sulfonation rate: 0 nmol/hr/mg protein

## O=c1c(O)c(-c2ccc(O)cc2)oc2ccccc12 [3,4’DHF, 3,4'-Dihydroxyflavone]
Expressed human SULT1A3 [1]
  sulfate detection when SULT1A3 was used: not detected
Expressed human SULT1A3 [1]; [3]
  sulfonation rate: 0 nmol/hr/mg protein
Expressed human SULT1A3 [1]; [4]
  sulfonation rate: 0 nmol/hr/mg protein

## O=c1c(O)c(-c2ccccc2)oc2cc(O)cc(O)c12 [3,5,7THF, 3,5,7-Trihydroxyflavone]
Expressed human SULT1A3 [1]; [3]
  sulfonation rate: 13.88 ± 1.21 nmol/hr/mg protein
Expressed human SULT1A3 [1]; [4]
  sulfonation rate: 24.98 ± 0.49 nmol/hr/mg protein

## O=c1c(O)c(-c2ccccc2)oc2cc(O)ccc12 [3,7DHF, 3,7-Dihydroxyflavone]
Expressed human SULT1A3 [2]; SULT1A3
  Vmax-1/ Km1: 43000 µL/min/mg
Expressed human SULT1A3 [2]
  Km1: 1.85 µM
  Kinetic model: Sigmoidal kinetics of Hill equation
Expressed human SULT1A3 [1]; [3]
  sulfonation rate: 45.84 ± 1.53 nmol/hr/mg protein
Expressed human SULT1A3 [1]; [4]
  sulfonation rate: 74.69 ± 1.05 nmol/hr/mg protein

## O=c1c(O)c(-c2ccc(O)cc2)oc2cc(O)ccc12 [3,7,4'THF, 3,7,4'-Trihydroxyflavone]
Expressed human SULT1A3 [1]; [3]
  sulfonation rate: 6.80 ± 1.28 nmol/hr/mg protein
Expressed human SULT1A3 [1]; [4]
  sulfonation rate: 11.79 ± 0.33 nmol/hr/mg protein

## O=c1cc(-c2ccccc2)oc2cc(O)cc(O)c12 [5,7DHF, 5,7-Dihydroxyflavone]
Expressed human SULT1A3 [2]
  Km1: 2.73 µM
  Kinetic model: Biphasic kinetics
Expressed human SULT1A3 [2]; SULT1A3, biphasic kinetics
  Vmax-2 (biphasic): 17.38 nmol/min/mg
Expressed human SULT1A3 [2]; SULT1A3, biphasic kinetics, low-affinity phase
  Km2: 1e-06 mM
Expressed human SULT1A3 [1]; [3]
  sulfonation rate: 62.30 ± 2.54 nmol/hr/mg protein
Expressed human SULT1A3 [1]; [4]
  sulfonation rate: 85.37 ± 1.53 nmol/hr/mg protein

## O=c1cc(-c2ccc(O)cc2)oc2cc(O)cc(O)c12 [apigenin, 5,7,4'-Trihydroxyflavone]
Expressed human SULT1A3 [1]; [3]
  sulfonation rate: 19.00 ± 1.58 nmol/hr/mg protein
Expressed human SULT1A3 [1]; expressed SULT1A3, substrate concentration 2.5 µM, listed as 5,7,4'THF
  sulfonation rate: 19.00±1.58 nmol/hr/mg protein
Expressed human SULT1A3 [1]; [4]
  sulfonation rate: 19.36 ± 0.41 nmol/hr/mg protein

## O=c1c(O)c(-c2ccc(O)cc2)oc2cc(O)cc(O)c12 [kaempferol, 3,5,7,4’tetrahydroxyflavone]
Expressed human SULT1A3 [1]; [3]
  sulfonation rate: 3.78 ± 0.79 nmol/hr/mg protein
Expressed human SULT1A3 [1]; [4]
  sulfonation rate: 5.77 ± 0.22 nmol/hr/mg protein

Reference: article PMC3404749 (Molecular Pharmaceutics, 2012)
